Source: ChEMBL document CHEMBL4715760, “Balancing potency, metabolic stability and permeability in pyrrolopyrimidine-based EGFR inhibitors” (Eur J Med Chem, 2016)

Experiments:
[1] = target: cAMP-dependent protein kinase catalytic subunit alpha (Homo sapiens) (UniProt P17612); assay: Inhibition of recombinant human His-tagged PRKACA (1 to 351 residues) expressed in Escherichia coli expression system at 500 nM using Ser/Thr 01 as substrate incubated for 1 hr in presence of ATP at its Km concentration by Z'-LYTE assay relative to control
[2] = target: Vascular endothelial growth factor receptor 3 (Homo sapiens) (UniProt P35916); assay: Inhibition of recombinant human GST-tagged FLT4 (800 to 1297 residues) expressed in baculovirus expression system at 500 nM using Tyr 04 peptide as substrate incubated for 1 hr in presence of ATP at its Km concentration by Z'-LYTE assay relative to control
[3] = target: T1, Serine/threonine-protein kinase Nek1 (Homo sapiens) (UniProt Q96PY6); assay: Inhibition of recombinant human GST-tagged NEK1 (1 to 505 residues) expressed in baculovirus expression system at 500 nM using Ser/Thr 07 as substrate incubated for 1 hr in presence of ATP at its Km concentration by Z'-LYTE assay relative to control
T1 sequence (whole entry): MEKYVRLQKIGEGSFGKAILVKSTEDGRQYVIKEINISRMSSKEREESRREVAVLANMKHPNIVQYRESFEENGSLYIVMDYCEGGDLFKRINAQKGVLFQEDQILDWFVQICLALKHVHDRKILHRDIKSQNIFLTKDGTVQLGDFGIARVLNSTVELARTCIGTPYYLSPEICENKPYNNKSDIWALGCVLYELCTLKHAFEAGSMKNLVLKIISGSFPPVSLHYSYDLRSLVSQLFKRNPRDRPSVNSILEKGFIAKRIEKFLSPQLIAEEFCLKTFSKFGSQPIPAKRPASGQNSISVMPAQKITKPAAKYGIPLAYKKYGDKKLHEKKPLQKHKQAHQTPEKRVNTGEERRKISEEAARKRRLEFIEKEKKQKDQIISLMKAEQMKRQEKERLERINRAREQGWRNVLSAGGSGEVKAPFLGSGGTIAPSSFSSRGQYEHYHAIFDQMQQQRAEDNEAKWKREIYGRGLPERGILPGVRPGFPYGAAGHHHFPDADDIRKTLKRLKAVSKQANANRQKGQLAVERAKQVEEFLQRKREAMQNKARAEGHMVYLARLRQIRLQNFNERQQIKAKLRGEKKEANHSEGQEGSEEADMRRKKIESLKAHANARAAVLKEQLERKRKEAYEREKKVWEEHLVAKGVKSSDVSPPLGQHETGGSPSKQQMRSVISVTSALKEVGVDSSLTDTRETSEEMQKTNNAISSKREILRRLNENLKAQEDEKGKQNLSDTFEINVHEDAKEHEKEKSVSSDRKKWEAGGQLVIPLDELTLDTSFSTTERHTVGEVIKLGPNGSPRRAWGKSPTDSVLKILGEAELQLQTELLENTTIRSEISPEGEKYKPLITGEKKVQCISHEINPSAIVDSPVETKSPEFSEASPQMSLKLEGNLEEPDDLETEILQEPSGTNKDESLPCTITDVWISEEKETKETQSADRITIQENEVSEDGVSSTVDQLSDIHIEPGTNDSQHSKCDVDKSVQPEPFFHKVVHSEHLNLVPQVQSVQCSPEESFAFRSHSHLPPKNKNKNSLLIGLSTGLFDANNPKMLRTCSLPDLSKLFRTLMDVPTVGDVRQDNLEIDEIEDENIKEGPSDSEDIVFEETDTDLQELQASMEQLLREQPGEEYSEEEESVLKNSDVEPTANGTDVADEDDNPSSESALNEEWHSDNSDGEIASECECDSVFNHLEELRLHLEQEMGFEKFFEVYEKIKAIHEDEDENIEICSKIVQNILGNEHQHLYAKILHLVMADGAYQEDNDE

[4] = target: Tyrosine-protein kinase Fer (Homo sapiens) (UniProt P16591); assay: Inhibition of recombinant human GST-tagged FER (541 to 822 residues) expressed in baculovirus expression system at 500 nM using Tyr 05 peptide as substrate incubated for 1 hr in presence of ATP at its Km concentration by Z'-LYTE assay relative to control
[5] = target: Glycogen synthase kinase-3 beta (Homo sapiens) (UniProt P49841); assay: Inhibition of recombinant full-length human His-tagged GSK3beta expressed in baculovirus expression system at 500 nM using Ser/Thr 09 as substrate incubated for 1 hr in presence of ATP at its Km concentration by Z'-LYTE assay relative to control
[6] = target: Serine/threonine-protein kinase B-raf (Homo sapiens) (UniProt P15056); assay: Inhibition of recombinant human GST-tagged full length BRAF expressed in baculovirus expression system at 500 nM using Ser/Thr 03 peptide as substrate incubated for 1 hr in presence of 100 uM ATP by Z'-LYTE assay relative to control
[7] = target: Fibroblast growth factor receptor 1 (Homo sapiens) (UniProt P11362); assay: Inhibition of recombinant human His-tagged FGFR1 (308 to 731 residues) expressed in baculovirus expression system at 500 nM using Tyr 04 peptide as substrate incubated for 1 hr in presence of ATP at its Km concentration by Z'-LYTE assay relative to control
[8] = target: Ephrin type-A receptor 2 (Homo sapiens) (UniProt P29317); assay: Inhibition of recombinant human GST-tagged EPHA2 cytoplasmic domain expressed in baculovirus expression system at 500 nM using Tyr 01 peptide as substrate incubated for 1 hr in presence of ATP at its Km concentration by Z'-LYTE assay relative to control
[9] = target: Mitogen-activated protein kinase 8 (Homo sapiens) (UniProt P45983); assay: Inhibition of recombinant human His tagged human MAPK8 expressed in baculovirus expression system at 500 nM using Ser/Thr 04 as substrate incubated for 1 hr in presence of 100 uM ATP by Z'-LYTE assay relative to control
[10] = target: Protein kinase C theta type (Homo sapiens) (UniProt Q04759); assay: Inhibition of recombinant human His-tagged full length PRKCQ expressed in baculovirus expression system at 500 nM using Ser/Thr 07 as substrate incubated for 1 hr in presence of ATP at its Km concentration by Z'-LYTE assay relative to control
Sequence of Protein kinase C theta type (Homo sapiens) (Q04759 whole entry, looked up): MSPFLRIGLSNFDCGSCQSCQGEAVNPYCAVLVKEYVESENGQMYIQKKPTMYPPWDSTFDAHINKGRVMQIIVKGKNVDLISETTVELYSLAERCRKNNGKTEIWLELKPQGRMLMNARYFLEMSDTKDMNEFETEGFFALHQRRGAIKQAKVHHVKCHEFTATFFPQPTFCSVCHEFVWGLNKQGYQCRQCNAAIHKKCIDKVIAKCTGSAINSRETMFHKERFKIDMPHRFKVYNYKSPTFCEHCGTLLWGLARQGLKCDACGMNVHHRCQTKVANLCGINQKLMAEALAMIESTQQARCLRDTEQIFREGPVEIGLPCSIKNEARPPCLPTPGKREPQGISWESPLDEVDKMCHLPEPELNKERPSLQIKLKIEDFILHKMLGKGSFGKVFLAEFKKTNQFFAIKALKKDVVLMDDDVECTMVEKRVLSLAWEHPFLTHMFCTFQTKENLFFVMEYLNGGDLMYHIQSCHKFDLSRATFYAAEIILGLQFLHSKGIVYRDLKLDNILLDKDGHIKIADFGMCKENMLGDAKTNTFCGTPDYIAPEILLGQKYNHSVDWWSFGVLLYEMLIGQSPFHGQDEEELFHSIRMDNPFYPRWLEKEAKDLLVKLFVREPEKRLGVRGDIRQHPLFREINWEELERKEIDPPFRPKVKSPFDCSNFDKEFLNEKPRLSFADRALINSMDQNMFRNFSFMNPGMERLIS

Sequence of Tyrosine-protein kinase Fer (Homo sapiens) (P16591 whole entry, looked up, the tested form may be a part): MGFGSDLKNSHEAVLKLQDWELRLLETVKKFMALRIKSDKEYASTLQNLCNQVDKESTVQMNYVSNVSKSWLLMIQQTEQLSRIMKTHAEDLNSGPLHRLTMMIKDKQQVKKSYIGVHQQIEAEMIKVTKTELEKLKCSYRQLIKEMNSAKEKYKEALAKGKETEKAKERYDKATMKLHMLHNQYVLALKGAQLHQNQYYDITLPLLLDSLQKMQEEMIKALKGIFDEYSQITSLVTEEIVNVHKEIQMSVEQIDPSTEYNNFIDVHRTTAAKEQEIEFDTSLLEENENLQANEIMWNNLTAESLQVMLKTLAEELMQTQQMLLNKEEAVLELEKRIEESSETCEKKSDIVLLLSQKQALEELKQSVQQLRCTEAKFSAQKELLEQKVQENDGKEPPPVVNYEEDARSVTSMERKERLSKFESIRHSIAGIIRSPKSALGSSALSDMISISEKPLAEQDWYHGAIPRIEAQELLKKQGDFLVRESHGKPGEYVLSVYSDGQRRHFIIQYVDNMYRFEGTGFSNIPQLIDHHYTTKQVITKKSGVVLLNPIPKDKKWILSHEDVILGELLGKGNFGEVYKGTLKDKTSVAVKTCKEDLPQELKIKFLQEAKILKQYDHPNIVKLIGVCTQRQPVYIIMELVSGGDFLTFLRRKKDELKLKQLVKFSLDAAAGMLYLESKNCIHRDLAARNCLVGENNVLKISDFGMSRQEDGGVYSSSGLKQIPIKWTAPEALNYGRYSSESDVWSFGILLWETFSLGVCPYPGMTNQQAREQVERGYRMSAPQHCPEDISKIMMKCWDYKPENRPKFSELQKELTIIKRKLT
Sequence of Mitogen-activated protein kinase 8 (Homo sapiens) (P45983 whole entry): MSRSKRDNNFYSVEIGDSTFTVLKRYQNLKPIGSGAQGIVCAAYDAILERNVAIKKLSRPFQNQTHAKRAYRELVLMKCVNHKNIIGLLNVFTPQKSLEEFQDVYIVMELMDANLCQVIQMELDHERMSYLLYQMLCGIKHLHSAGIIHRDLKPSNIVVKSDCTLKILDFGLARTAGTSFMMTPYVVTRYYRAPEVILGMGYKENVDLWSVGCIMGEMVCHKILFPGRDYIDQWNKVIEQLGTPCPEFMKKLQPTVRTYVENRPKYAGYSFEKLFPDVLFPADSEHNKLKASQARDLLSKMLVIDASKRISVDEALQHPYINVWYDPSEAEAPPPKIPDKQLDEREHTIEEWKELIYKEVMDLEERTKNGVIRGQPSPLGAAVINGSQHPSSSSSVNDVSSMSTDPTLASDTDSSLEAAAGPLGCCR
Sequence of Vascular endothelial growth factor receptor 3 (Homo sapiens) (P35916 whole entry, the tested form may be a part): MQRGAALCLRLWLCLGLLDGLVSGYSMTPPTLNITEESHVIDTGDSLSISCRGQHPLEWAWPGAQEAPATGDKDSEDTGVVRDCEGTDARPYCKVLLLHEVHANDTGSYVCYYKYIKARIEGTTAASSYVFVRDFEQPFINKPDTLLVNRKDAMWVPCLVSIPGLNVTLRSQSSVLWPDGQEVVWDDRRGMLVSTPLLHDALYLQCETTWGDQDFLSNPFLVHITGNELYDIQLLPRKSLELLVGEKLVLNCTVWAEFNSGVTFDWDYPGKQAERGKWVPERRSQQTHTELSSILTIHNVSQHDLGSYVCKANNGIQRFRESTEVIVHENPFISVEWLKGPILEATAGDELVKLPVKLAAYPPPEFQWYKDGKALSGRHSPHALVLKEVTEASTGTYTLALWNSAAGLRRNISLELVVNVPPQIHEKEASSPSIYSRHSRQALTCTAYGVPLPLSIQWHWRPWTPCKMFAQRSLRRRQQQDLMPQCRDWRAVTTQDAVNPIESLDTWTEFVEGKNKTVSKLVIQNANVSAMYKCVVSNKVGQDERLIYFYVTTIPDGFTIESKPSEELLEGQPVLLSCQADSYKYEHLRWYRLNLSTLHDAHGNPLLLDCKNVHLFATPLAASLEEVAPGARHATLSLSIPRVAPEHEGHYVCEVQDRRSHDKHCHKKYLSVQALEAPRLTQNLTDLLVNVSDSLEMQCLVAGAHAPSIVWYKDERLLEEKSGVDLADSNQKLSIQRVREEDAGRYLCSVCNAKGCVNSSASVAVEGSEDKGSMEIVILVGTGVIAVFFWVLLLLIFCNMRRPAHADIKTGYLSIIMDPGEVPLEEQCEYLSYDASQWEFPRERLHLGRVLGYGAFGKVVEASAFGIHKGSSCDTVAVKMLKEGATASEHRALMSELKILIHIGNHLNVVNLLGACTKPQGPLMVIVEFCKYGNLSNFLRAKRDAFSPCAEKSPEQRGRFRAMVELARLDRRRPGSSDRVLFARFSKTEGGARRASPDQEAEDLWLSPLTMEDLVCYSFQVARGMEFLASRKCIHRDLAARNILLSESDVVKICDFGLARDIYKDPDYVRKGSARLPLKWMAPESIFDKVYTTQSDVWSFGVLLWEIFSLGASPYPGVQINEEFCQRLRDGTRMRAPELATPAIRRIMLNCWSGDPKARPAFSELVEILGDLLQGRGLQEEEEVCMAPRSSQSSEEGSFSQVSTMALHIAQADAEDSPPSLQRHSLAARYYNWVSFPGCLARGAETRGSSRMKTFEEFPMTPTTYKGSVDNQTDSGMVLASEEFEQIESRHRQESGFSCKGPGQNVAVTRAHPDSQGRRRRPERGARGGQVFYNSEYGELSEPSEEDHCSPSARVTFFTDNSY
Sequence of Ephrin type-A receptor 2 (Homo sapiens) (P29317 whole entry, the tested form may be a part): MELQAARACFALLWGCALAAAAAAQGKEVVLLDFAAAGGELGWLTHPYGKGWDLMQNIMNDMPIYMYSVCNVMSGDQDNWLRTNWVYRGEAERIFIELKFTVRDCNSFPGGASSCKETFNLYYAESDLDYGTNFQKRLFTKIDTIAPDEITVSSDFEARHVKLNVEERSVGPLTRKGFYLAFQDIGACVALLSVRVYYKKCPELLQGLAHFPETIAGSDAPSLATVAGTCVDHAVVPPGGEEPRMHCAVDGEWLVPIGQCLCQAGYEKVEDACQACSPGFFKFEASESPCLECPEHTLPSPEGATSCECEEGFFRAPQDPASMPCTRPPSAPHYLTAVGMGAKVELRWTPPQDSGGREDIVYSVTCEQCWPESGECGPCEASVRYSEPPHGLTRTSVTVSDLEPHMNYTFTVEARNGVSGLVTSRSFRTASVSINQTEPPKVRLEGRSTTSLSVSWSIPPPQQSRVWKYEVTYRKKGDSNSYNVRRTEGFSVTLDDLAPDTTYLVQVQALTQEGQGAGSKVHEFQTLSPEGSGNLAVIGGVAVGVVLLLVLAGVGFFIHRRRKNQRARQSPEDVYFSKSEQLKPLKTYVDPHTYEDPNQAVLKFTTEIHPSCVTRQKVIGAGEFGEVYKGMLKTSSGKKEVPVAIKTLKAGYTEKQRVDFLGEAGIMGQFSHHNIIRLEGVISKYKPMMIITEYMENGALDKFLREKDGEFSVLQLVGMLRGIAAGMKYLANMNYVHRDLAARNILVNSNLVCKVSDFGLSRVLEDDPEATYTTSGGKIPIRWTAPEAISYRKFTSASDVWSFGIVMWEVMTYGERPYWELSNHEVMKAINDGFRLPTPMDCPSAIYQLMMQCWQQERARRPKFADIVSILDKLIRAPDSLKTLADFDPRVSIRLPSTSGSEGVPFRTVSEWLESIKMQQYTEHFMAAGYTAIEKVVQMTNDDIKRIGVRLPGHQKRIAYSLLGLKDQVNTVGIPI
Sequence of Fibroblast growth factor receptor 1 (Homo sapiens) (P11362 22-822 limits assumed): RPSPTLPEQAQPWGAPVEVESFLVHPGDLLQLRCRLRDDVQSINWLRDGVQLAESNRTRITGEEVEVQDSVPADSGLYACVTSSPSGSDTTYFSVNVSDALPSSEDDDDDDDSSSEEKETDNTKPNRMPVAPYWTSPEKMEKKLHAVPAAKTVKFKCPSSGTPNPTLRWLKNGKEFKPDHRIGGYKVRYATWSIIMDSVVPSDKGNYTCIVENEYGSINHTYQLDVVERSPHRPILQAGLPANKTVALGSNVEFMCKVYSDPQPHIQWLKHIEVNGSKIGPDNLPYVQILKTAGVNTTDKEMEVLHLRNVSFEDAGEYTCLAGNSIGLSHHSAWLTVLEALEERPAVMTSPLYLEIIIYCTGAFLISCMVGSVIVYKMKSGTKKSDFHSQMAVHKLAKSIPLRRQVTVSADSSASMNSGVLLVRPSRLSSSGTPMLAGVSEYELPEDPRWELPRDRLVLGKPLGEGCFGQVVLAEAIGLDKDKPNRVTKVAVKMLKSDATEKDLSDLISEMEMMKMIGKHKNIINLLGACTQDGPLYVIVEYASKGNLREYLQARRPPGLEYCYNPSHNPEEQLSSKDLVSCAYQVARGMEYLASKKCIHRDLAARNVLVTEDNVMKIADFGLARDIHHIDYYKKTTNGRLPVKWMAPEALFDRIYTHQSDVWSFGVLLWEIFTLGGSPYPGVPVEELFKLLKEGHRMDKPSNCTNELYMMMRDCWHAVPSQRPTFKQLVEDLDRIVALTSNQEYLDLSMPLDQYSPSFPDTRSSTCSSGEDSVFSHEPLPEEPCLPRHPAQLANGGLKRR

Structure (SMILES) | inhibition [1] [%] | inhibition [2] [%] | inhibition [3] [%] | inhibition [4] [%] | inhibition [5] [%] | inhibition [6] [%] | inhibition [7] [%] | inhibition [8] [%] | inhibition [9] [%] | inhibition [10] [%]
C#Cc1cccc(Nc2ncnc3cc(OCCOC)c(OCCOC)cc23)c1 [ERLOTINIB] | -10 | 44 | -8 | -1 | -8 | 3 | -4 | 11 | 32 | -4
CN(C)CCNCc1ccc(-c2cc3c(N[C@H](CO)c4ccccc4)ncnc3[nH]2)cc1F | 4 | 27 | 15 | 7 | 8 | -4 | 9 | 54 | 19 | 1
OC[C@@H](Nc1ncnc2[nH]c(-c3ccccc3)cc12)c1ccccc1 | 1 | 6 | 0 | 6 | 8 | -2 | 16 | 16 | 0 | 12
OCC[C@@H](Nc1ncnc2[nH]c(-c3ccccc3)cc12)c1ccccc1 | 7 | 20 | 13 | 10 | 8 | -3 | 0 | 23 | 27 | 5

Next, values leading:

inhibition [1] [%] | inhibition [2] [%] | inhibition [3] [%] | inhibition [4] [%] | inhibition [5] [%] | inhibition [6] [%] | inhibition [7] [%] | inhibition [8] [%] | inhibition [9] [%] | inhibition [10] [%] | Structure (SMILES)
-1 | 12 | 1 | 7 | 6 | 4 | 6 | 7 | 7 | 5 | COc1ccccc1-c1cc2c(N[C@H](CO)c3ccccc3)ncnc2[nH]1
6 | 21 | 8 | 12 | 13 | 7 | 3 | 21 | 17 | 2 | CCOc1ccccc1-c1cc2c(N[C@H](CO)c3ccccc3)ncnc2[nH]1
